According to PubChem BioAssay AID1963826 (Molecular Pharmacology Branch, DTP, NCI, 2024):

Tested on: 926638-142-R-J1-PDC complex spheroid viability
Test: Anticancer human tumor 926638-142-R-J1-PDC patient-derived endometrial carcinoma cell line growth inhibition [POLQ]
Conditions: for IC50: curve of first compound; for viability, T/C: stronger effect = lower value; active = viability on the fitted dose curve at most 10% of control; inactive = the rest
In short: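 Three-cell-type spheroids modelling solid tumor plus stroma served as the readout system; POL inhibitors were tested individually and in combination, concentration ranges set by clinical Cmax where known.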

[1] = second compound 0.0316 µM, first compound 0.0316 µM
[2] = second compound 0.0316 µM, first compound 0.1 µM
[3] = second compound 0.0316 µM, first compound 0.316 µM
[4] = second compound 0.0316 µM, first compound 1 µM
[5] = second compound 0.0316 µM, first compound 3.16 µM
[6] = second compound 0.0316 µM, first compound 10 µM
[7] = second compound 0.1 µM, first compound 0.0316 µM
[8] = second compound 0.1 µM, first compound 0.1 µM
[9] = second compound 0.1 µM, first compound 0.316 µM
[10] = second compound 0.1 µM, first compound 1 µM
[11] = second compound 0.1 µM, first compound 3.16 µM
[12] = second compound 0.1 µM, first compound 10 µM
[13] = second compound 0.316 µM, first compound 0.0316 µM
[14] = second compound 0.316 µM, first compound 0.1 µM
[15] = second compound 0.316 µM, first compound 0.316 µM
[16] = second compound 0.316 µM, first compound 1 µM
[17] = second compound 0.316 µM, first compound 3.16 µM
[18] = second compound 0.316 µM, first compound 10 µM
[19] = second compound 1 µM, first compound 0.0316 µM
[20] = second compound 1 µM, first compound 0.1 µM
[21] = second compound 1 µM, first compound 0.316 µM
[22] = second compound 1 µM, first compound 1 µM
[23] = second compound 1 µM, first compound 3.16 µM
[24] = second compound 1 µM, first compound 10 µM
[25] = second compound 3.16 µM, first compound 0.0316 µM
[26] = second compound 3.16 µM, first compound 0.1 µM
[27] = second compound 3.16 µM, first compound 0.316 µM
[28] = second compound 3.16 µM, first compound 1 µM
[29] = second compound 3.16 µM, first compound 3.16 µM
[30] = second compound 3.16 µM, first compound 10 µM
[31] = second compound 10 µM, first compound 0.0316 µM
[32] = second compound 10 µM, first compound 0.1 µM
[33] = second compound 10 µM, first compound 0.316 µM
[34] = second compound 10 µM, first compound 1 µM
[35] = second compound 10 µM, first compound 3.16 µM
[36] = second compound 10 µM, first compound 10 µM
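Also: spheroids exposed to drugs for one week before readout.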
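For viability, T/C in this document: percent viability relative to DMSO vehicle control wells set as 100%.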

O=c1[nH]cc(F)c(=O)[nH]1 + Cc1cccc(N(C)C(=O)C2C(O)CCN2c2nc(C)cc(C(F)(F)F)c2C#N)c1
inactive: viability, T/C [1] 106% | viability, T/C [2] 98.6% | viability, T/C [3] 96.6% | viability, T/C [4] 104% | viability, T/C [5] 89.5% | viability, T/C [6] 82.2% | viability, T/C [7] 111% | viability, T/C [8] 91.2% | viability, T/C [9] 110% | viability, T/C [10] 82.1% | viability, T/C [11] 106% | viability, T/C [12] 71.4% | viability, T/C [13] 88.3% | viability, T/C [14] 80.2% | viability, T/C [15] 98.8% | viability, T/C [16] 83.5% | viability, T/C [17] 88.1% | viability, T/C [18] 75% | viability, T/C [19] 81.2% | viability, T/C [20] 104% | viability, T/C [21] 88.4% | viability, T/C [22] 97.5% | viability, T/C [23] 81.4% | viability, T/C [24] 81.5% | viability, T/C [25] 98.7% | viability, T/C [26] 89.4% | viability, T/C [27] 82.7% | viability, T/C [28] 90.9% | viability, T/C [29] 91% | viability, T/C [30] 92.8% | viability, T/C [31] 81.5% | viability, T/C [32] 98.4% | viability, T/C [33] 90% | viability, T/C [34] 95.2% | viability, T/C [35] 107% | viability, T/C [36] 80.8%
> 10000 nM: IC50 (second compound 0.0316 µM) | IC50 (second compound 0.1 µM) | IC50 (second compound 0.316 µM) | IC50 (second compound 1 µM) | IC50 (second compound 3.16 µM) | IC50 (second compound 10 µM)

CC(=O)O[C@H]1C(=O)[C@@]2(C)[C@H]([C@H](OC(=O)c3ccccc3)[C@]3(O)C[C@H](OC(=O)[C@H](O)[C@@H](NC(=O)c4ccccc4)c4ccccc4)C(C)=C1C3(C)C)[C@]1(OC(C)=O)CO[C@@H]1C[C@@H]2O + Cc1cccc(N(C)C(=O)C2C(O)CCN2c2nc(C)cc(C(F)(F)F)c2C#N)c1
800 nM: IC50 (second compound 0.316 µM)
1300 nM: IC50 (second compound 3.16 µM)
> 3000 nM: IC50 (second compound 0.1 µM)
817 nM: IC50 (second compound 10 µM)
659 nM: IC50 (second compound 0.0316 µM)
2380 nM: IC50 (second compound 1 µM)
inactive: viability, T/C (second compound 0.0316 µM, first compound 0.00949 µM) 88.1% | viability, T/C (second compound 0.0316 µM, first compound 0.03 µM) 62.9% | viability, T/C (second compound 0.0316 µM, first compound 0.0949 µM) 56.8% | viability, T/C (second compound 0.0316 µM, first compound 0.3 µM) 56.1% | viability, T/C (second compound 0.0316 µM, first compound 0.949 µM) 53.9% | viability, T/C (second compound 0.0316 µM, first compound 3 µM) 41.5% | viability, T/C (second compound 0.1 µM, first compound 0.00949 µM) 87.5% | viability, T/C (second compound 0.1 µM, first compound 0.03 µM) 65.8% | viability, T/C (second compound 0.1 µM, first compound 0.0949 µM) 62.1% | viability, T/C (second compound 0.1 µM, first compound 0.3 µM) 52.4% | viability, T/C (second compound 0.1 µM, first compound 0.949 µM) 58.3% | viability, T/C (second compound 0.1 µM, first compound 3 µM) 51.4% | viability, T/C (second compound 0.316 µM, first compound 0.00949 µM) 79.2% | viability, T/C (second compound 0.316 µM, first compound 0.03 µM) 77% | viability, T/C (second compound 0.316 µM, first compound 0.0949 µM) 66.8% | viability, T/C (second compound 0.316 µM, first compound 0.3 µM) 56.1% | viability, T/C (second compound 0.316 µM, first compound 0.949 µM) 50.5% | viability, T/C (second compound 0.316 µM, first compound 3 µM) 43.2% | viability, T/C (second compound 1 µM, first compound 0.00949 µM) 76.3% | viability, T/C (second compound 1 µM, first compound 0.03 µM) 68.6% | viability, T/C (second compound 1 µM, first compound 0.0949 µM) 61.7% | viability, T/C (second compound 1 µM, first compound 0.3 µM) 57.6% | viability, T/C (second compound 1 µM, first compound 0.949 µM) 67.2% | viability, T/C (second compound 1 µM, first compound 3 µM) 43.1% | viability, T/C (second compound 3.16 µM, first compound 0.00949 µM) 70.6% | viability, T/C (second compound 3.16 µM, first compound 0.03 µM) 61% | viability, T/C (second compound 3.16 µM, first compound 0.0949 µM) 55.4% | viability, T/C (second compound 3.16 µM, first compound 0.3 µM) 55.4% | viability, T/C (second compound 3.16 µM, first compound 0.949 µM) 57% | viability, T/C (second compound 3.16 µM, first compound 3 µM) 43.8% | viability, T/C (second compound 10 µM, first compound 0.00949 µM) 72.8% | viability, T/C (second compound 10 µM, first compound 0.03 µM) 63.2% | viability, T/C (second compound 10 µM, first compound 0.0949 µM) 55.9% | viability, T/C (second compound 10 µM, first compound 0.3 µM) 57.5% | viability, T/C (second compound 10 µM, first compound 0.949 µM) 50.8% | viability, T/C (second compound 10 µM, first compound 3 µM) 44.2%

CCCS(=O)(=O)Nc1ccc(F)c(C(=O)c2c[nH]c3ncc(-c4ccc(Cl)cc4)cc23)c1F + COC1C(OC(N)=O)C(O)C(Oc2ccc3c(O)c(NC(=O)c4ccc(O)c(CC=C(C)C)c4)c(=O)oc3c2C)OC1(C)C
inactive: viability, T/C [1] 112% | viability, T/C [2] 89.5% | viability, T/C [3] 93.1% | viability, T/C [4] 122% | viability, T/C [5] 86.4% | viability, T/C [6] 45% | viability, T/C [7] 108% | viability, T/C [8] 105% | viability, T/C [9] 83.3% | viability, T/C [10] 112% | viability, T/C [11] 91.3% | viability, T/C [12] 49.1% | viability, T/C [13] 110% | viability, T/C [14] 114% | viability, T/C [15] 118% | viability, T/C [16] 116% | viability, T/C [17] 105% | viability, T/C [18] 49.6% | viability, T/C [19] 84% | viability, T/C [20] 95.7% | viability, T/C [21] 104% | viability, T/C [22] 101% | viability, T/C [23] 98.8% | viability, T/C [24] 52.2% | viability, T/C [25] 89.7% | viability, T/C [26] 92.3% | viability, T/C [27] 89.2% | viability, T/C [28] 95.2% | viability, T/C [29] 95.5% | viability, T/C [30] 49.2% | viability, T/C [31] 81.9% | viability, T/C [32] 93.7% | viability, T/C [33] 90% | viability, T/C [34] 84% | viability, T/C [35] 83.7% | viability, T/C [36] 49.5%
9760 nM: IC50 (second compound 0.1 µM)
9780 nM: IC50 (second compound 3.16 µM)
9970 nM: IC50 (second compound 0.316 µM)
> 10000 nM: IC50 (second compound 1 µM)
8720 nM: IC50 (second compound 0.0316 µM)
9920 nM: IC50 (second compound 10 µM)

CC1COCCN1c1cc(C2(O)CC3CCC(C2)O3)c2cnn(-c3ccn[nH]3)c2n1 (stereo not drawn) + Cc1cccc(N(C)C(=O)C2C(O)CCN2c2nc(C)cc(C(F)(F)F)c2C#N)c1
inactive: viability, T/C [1] 102% | viability, T/C [2] 64.7% | viability, T/C [3] 34.5% | viability, T/C [4] 13.3% | viability, T/C [7] 100% | viability, T/C [8] 79.8% | viability, T/C [9] 35.8% | viability, T/C [10] 12.2% | viability, T/C [13] 88.7% | viability, T/C [14] 67.5% | viability, T/C [15] 37.9% | viability, T/C [16] 11.6% | viability, T/C [19] 85.7% | viability, T/C [20] 71% | viability, T/C [21] 35.8% | viability, T/C [22] 14% | viability, T/C [25] 85.9% | viability, T/C [26] 61% | viability, T/C [27] 26.1% | viability, T/C [28] 13.9% | viability, T/C [31] 97.7% | viability, T/C [32] 72.9% | viability, T/C [33] 33.5% | viability, T/C [34] 13.2%
198 nM: IC50 (second compound 10 µM)
active: viability, T/C [5] 8.43% | viability, T/C [6] 2.27% | viability, T/C [11] 6.79% | viability, T/C [12] 1.49% | viability, T/C [17] 9.91% | viability, T/C [18] 1.44% | viability, T/C [23] 7.71% | viability, T/C [24] 1.6% | viability, T/C [29] 7.14% | viability, T/C [30] 1.53% | viability, T/C [35] 6.57% | viability, T/C [36] 1.3%
194 nM: IC50 (second compound 0.316 µM)
220 nM: IC50 (second compound 0.1 µM)
143 nM: IC50 (second compound 3.16 µM)
173 nM: IC50 (second compound 0.0316 µM)
201 nM: IC50 (second compound 1 µM)
